Experimental findings from paper PMC11167047 (Cell Death Discovery, 2024) are described below.

Common to all, as to test: kinome screen (33PanQinase)
Type in all cases: biochemical

Assay [1] concerns the target T1, CAMK4 (Homo sapiens, UniProt Q16566).
T1 construct: purchased Reaction Biology Europe GmbH (formerly ProQinase)
T1 sequence (Q16566 1-473): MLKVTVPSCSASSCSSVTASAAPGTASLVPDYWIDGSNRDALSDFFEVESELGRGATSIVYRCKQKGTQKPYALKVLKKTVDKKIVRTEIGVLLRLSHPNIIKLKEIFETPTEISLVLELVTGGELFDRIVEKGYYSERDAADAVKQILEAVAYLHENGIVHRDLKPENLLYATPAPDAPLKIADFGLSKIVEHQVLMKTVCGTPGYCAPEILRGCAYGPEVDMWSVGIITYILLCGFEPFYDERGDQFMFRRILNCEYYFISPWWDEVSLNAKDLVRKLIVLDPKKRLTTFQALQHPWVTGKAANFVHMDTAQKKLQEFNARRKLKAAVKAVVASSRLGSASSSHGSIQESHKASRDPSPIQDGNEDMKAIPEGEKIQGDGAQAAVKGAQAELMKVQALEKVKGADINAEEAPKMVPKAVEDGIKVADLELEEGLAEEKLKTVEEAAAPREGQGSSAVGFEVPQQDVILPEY
How it is done:
(§1) The Kinome Screening was performed by Reaction Biology Europe GmbH (http://reactionbiology.com; Freiburg i. Br., Germany).

The target of assay [2] is T2, CDC42BPA (Homo sapiens, UniProt Q5VT25).
T2 construct: purchased Reaction Biology Europe GmbH (formerly ProQinase)
T2 sequence (Q5VT25 whole entry): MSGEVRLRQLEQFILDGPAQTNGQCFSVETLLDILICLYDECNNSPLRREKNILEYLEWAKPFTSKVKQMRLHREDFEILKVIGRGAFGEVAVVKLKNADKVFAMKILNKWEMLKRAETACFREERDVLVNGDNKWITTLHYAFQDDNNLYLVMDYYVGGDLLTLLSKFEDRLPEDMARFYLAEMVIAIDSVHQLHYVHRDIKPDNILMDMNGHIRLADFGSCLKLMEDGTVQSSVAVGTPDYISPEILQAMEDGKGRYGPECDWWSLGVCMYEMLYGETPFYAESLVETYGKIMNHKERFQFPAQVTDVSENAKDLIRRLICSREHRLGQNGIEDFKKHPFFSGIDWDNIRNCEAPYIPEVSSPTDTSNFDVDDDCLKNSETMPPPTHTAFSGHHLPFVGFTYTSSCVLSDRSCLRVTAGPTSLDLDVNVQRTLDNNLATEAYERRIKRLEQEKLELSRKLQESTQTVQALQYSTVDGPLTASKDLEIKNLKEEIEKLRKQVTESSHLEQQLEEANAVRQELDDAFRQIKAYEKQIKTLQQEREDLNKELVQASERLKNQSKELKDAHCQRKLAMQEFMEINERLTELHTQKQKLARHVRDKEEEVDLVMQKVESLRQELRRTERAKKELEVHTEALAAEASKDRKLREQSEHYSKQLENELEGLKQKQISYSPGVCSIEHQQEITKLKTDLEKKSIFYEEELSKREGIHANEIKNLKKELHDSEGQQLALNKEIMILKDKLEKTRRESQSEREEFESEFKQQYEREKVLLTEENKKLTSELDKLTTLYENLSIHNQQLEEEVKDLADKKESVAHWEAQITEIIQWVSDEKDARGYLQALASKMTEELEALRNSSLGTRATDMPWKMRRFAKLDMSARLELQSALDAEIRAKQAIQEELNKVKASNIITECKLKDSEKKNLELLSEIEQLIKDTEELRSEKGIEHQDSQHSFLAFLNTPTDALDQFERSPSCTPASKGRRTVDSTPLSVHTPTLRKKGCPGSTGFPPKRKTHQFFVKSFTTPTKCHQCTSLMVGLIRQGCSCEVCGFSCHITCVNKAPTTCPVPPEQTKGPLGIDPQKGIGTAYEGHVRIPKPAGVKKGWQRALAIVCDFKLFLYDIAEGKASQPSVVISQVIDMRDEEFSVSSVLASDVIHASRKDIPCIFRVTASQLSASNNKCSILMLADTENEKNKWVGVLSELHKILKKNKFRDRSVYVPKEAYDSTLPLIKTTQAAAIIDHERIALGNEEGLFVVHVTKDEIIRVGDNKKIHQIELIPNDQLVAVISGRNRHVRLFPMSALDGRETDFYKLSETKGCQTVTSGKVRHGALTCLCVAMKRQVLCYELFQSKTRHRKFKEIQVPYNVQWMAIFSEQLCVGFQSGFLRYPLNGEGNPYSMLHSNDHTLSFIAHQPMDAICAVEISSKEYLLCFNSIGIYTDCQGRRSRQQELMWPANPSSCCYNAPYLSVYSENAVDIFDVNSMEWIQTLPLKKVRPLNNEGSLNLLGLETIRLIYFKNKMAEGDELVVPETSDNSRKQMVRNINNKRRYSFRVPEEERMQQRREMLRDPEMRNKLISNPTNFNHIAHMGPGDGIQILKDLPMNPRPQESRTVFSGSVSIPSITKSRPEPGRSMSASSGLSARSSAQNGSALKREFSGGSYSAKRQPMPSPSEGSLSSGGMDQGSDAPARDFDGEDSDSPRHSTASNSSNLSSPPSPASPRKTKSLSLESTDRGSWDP
How it is done: as §1

In assay [3] the target is T3, CDK3/CycE1 (Homo sapiens, UniProt Q00526).
T3 construct: purchased Reaction Biology Europe GmbH (formerly ProQinase)
T3 sequence (Q00526 whole entry): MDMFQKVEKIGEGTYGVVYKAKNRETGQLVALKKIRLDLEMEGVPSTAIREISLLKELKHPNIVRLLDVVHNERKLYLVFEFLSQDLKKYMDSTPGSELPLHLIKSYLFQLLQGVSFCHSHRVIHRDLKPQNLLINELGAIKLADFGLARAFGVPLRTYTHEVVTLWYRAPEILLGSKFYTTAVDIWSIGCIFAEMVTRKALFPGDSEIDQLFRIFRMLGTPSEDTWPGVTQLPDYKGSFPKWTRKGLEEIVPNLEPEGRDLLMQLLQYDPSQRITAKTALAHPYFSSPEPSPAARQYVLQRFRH
T3 sequence (P24864 whole entry partner): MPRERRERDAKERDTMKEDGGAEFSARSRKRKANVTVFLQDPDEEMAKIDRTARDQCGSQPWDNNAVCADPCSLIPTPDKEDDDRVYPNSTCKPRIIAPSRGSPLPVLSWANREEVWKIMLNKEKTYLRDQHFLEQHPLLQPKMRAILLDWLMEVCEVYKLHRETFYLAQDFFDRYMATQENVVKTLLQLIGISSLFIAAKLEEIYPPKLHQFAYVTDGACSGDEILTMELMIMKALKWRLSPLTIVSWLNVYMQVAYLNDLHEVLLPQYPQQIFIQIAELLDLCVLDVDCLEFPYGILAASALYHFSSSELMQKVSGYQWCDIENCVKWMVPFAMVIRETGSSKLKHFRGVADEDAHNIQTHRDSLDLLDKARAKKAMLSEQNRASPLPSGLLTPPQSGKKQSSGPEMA
How it is done: as §1

Assay [4] addresses T4, EPHB2 (Homo sapiens, UniProt P29323).
T4 construct: purchased Reaction Biology Europe GmbH (formerly ProQinase)
T4 sequence (P29323 19-1055): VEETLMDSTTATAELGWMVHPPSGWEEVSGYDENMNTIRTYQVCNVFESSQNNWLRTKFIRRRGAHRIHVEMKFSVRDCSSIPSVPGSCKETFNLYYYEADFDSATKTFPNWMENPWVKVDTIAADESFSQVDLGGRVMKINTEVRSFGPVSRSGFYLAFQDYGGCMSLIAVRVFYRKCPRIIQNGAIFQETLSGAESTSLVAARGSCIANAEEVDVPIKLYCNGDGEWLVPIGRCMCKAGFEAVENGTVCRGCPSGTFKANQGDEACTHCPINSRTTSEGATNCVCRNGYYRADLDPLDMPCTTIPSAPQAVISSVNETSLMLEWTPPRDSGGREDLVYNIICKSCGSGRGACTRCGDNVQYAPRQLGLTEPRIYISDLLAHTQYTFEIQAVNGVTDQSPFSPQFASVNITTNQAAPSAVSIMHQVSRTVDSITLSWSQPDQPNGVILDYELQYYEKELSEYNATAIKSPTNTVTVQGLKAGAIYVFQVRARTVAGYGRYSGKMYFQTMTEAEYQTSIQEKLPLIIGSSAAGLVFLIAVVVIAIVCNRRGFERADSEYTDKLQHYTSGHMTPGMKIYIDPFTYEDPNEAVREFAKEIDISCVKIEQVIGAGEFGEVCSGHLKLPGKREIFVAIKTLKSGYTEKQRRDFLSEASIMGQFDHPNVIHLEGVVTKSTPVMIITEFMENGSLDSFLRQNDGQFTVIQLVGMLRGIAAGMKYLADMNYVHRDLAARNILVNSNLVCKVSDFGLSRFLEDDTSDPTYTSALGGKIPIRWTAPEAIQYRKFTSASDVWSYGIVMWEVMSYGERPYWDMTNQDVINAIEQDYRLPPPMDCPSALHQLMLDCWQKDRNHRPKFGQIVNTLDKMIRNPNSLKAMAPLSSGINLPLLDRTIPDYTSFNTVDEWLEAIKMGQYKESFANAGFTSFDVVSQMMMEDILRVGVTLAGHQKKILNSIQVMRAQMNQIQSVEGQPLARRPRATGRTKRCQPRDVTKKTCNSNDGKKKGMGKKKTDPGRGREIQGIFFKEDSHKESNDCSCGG
The protocol: as §1

In assay [5] the target is T5, RPS6KA6 (Homo sapiens, UniProt Q9UK32).
T5 construct: purchased Reaction Biology Europe GmbH (formerly ProQinase)
T5 sequence (Q9UK32 whole entry): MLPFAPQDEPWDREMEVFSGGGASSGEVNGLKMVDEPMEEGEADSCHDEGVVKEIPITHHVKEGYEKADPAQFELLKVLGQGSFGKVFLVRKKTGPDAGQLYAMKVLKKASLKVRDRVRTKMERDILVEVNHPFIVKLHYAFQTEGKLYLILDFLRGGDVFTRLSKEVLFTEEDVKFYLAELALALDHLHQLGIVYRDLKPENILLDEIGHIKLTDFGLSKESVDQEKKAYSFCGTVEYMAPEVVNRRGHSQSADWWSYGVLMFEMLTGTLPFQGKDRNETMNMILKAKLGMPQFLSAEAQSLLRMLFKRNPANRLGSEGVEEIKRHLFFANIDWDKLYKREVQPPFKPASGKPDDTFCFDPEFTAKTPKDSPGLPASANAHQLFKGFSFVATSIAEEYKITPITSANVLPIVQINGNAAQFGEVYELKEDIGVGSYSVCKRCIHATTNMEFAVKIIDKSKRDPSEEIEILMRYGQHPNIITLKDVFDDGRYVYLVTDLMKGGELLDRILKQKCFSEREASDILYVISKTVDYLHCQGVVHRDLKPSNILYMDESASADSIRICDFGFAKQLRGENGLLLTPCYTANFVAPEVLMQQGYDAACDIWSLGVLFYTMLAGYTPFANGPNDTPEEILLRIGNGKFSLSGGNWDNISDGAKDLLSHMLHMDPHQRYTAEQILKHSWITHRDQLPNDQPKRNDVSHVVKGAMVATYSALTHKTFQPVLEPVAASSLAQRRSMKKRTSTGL
How it is done:
as §1

In assay [6] the target is T6, S6K (Homo sapiens, UniProt P23443).
T6 construct: purchased Reaction Biology Europe GmbH (formerly ProQinase)
T6 sequence (P23443 whole entry): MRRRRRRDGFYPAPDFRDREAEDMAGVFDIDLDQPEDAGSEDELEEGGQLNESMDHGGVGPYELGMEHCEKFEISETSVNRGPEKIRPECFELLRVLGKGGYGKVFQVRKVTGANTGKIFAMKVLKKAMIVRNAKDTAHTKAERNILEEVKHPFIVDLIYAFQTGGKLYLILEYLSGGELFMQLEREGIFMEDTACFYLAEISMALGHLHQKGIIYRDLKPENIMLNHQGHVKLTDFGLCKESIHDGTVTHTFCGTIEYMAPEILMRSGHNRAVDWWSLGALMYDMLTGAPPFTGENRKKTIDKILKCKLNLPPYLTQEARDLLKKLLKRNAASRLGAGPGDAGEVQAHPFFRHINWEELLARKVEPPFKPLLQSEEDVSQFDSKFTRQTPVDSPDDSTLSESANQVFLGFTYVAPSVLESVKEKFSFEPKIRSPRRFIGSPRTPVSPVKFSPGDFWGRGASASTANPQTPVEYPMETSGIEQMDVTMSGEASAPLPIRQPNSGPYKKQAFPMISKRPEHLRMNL
How it is done:
as §1

Assay [7] addresses T7, TSK2 (Homo sapiens, UniProt Q96PF2).
T7 construct: purchased Reaction Biology Europe GmbH (formerly ProQinase)
T7 sequence (Q96PF2 1-358): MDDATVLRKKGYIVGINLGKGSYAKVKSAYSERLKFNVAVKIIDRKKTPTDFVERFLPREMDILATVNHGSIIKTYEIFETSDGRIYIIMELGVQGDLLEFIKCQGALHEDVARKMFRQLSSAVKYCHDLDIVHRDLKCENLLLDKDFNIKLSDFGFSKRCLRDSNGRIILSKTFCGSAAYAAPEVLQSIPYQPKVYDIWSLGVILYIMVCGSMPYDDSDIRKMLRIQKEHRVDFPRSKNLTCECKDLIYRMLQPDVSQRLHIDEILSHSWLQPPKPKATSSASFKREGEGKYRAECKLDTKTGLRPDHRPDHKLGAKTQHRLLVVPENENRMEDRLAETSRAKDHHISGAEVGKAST
The protocol: as §1

Turning to `c1ccc(CNc2cc(-c3c[nH]c4ncccc34)ccn2)cc1` [meriolin 36], the residual kinase activity is 92 % of control in assay [1] (0.3 µM); 73 % of control in assay [1] (3 µM); 1 % of control in assay [2] (0.3 µM); 1 % of control in assay [2] (3 µM); 1 % of control in assay [3] (0.3 µM); -1 % of control in assay [3] (3 µM). Also, the residual kinase activity is reported as 85 % of control in assay [4] (0.3 µM); 47 % of control in assay [4] (3 µM); 13 % of control in assay [5] (0.3 µM); 3 % of control in assay [5] (3 µM); 82 % of control in assay [6] (0.3 µM); 37 % of control in assay [6] (3 µM). Besides, the residual kinase activity in assay [7] (0.3 µM) is reported as 103 % of control; in assay [7] (3 µM) it was 94 % of control.
Take `COc1ccnc2[nH]cc(-c3cc(N)nc(N)c3)c12` [meriolin 16]: the residual kinase activity in assay [1] (0.03 µM) is recorded as 96 % of control; in assay [1] (0.3 µM), 92 % of control; in assay [2] (0.03 µM), 53 % of control; in assay [2] (0.3 µM), 7 % of control; in assay [3] (0.03 µM), 36 % of control; in assay [3] (0.3 µM), 5 % of control. For the same compound, the residual kinase activity in assay [4] (0.03 µM) is 97 % of control; in assay [4] (0.3 µM), 95 % of control; in assay [5] (0.03 µM) it was 84 % of control; in assay [5] (0.3 µM) it was 48 % of control; in assay [6] (0.03 µM), 99 % of control; in assay [6] (0.3 µM) it was 84 % of control. Moreover, the values for the residual kinase activity in assay [7] (0.03 µM) and in assay [7] (0.3 µM) were 107 % of control and 92 % of control, respectively.
